Data on 13 compounds can be found in ChEMBL document CHEMBL2396598, “Anti-neuroinflammatory diarylheptanoids from the rhizomes of Dioscorea nipponica” (Bioorg Med Chem Lett, 2013).

For data set [1], the system named is BV-2. Nature of the data set: Antineuroinflammatory activity in mouse BV2 cells assessed as inhibition of LPS-induced nitric oxide production after 24 hrs by Griess assay. Format: functional, cell-based. Conditions: BV-2, 24 h. A general note: Nitrite, measured by Griess reagent, commonly stands in for NO production.
A short description of data set [2]: Cytotoxicity against LPS-treated mouse BV2 cells assessed as cell viability at 20 uM relative to control. As to conditions: read-out: Activity. Format: cell-based, BV-2.

In the case of `O=C(/C=C/C=C/c1ccc(O)c(O)c1)CCc1ccc(O)c(O)c1`, the IC50 in data set [1] was 7.84 µM. Also, in data set [2], the viability at 20 µM worked out at 24.6%.

For `COc1cc(CC[C@H]2C[C@@H](O)C[C@@H](c3ccc(O)c(OC)c3)O2)ccc1O`, the IC50 in data set [1] worked out at 95.1 µM. For the same compound, in data set [2], the viability at 20 µM was determined as 109%.

Turning to `COc1cc(CC[C@H]2C[C@H](O)C[C@@H](c3ccc(O)c(OC)c3)O2)ccc1O`, in data set [1], the IC50 was determined as 45.9 µM. Further, the viability at 20 µM in data set [2] was determined as 116%.

`Oc1ccc(CC[C@H]2C[C@@H](O)C[C@@H](c3ccc(O)cc3)O2)cc1`: in data set [1], the IC50 amounted to 39.7 µM. For the same compound, the viability at 20 µM in data set [2] turned out to be 96.8%.

In the case of `Oc1ccc(CC[C@H]2C[C@H](O)C[C@@H](c3ccc(O)cc3)O2)cc1`, in data set [1], the IC50 came out at 38.1 µM. The viability at 20 µM in data set [2] came to 95.6%.

Consider `Oc1ccc(/C=C/[C@H]2C[C@H](O)C[C@@H](c3ccc(O)cc3)O2)cc1`, for which the IC50 in data set [1] worked out at 18.6 µM. Also, the viability at 20 µM in data set [2] worked out at 91.4%.

As for `COc1cc(/C=C/C(=O)/C=C/c2ccc(O)cc2)ccc1O`, the IC50 in data set [1] worked out at 5.99 µM. Moreover, the viability at 20 µM in data set [2] was found to be 25.5%.

For `COc1ccc(/C=C/C=C/C(=O)CCc2ccc(O)cc2)cc1`, the IC50 in data set [1] came out at 8.44 µM. Moreover, the viability at 20 µM in data set [2] was found to be 18.5%.

Regarding `O=C(/C=C/C=C/c1ccc(O)c(O)c1)CCc1ccc(O)cc1`, the IC50 in data set [1] came out at 14.4 µM. Moreover, the viability at 20 µM in data set [2] was found to be 104%.

As to `O=C(/C=C/c1ccc(O)cc1)C[C@H](O)CCc1ccc(O)cc1`, the IC50 in data set [1] came to 57.1 µM. Further, in data set [2], the viability at 20 µM turned out to be 99.4%.

Turning to `COc1cc(CC[C@@H](O)C[C@H](O)CCc2ccc(O)c(O)c2)ccc1O`, the IC50 in data set [1] was determined as 89.7 µM. In data set [2], the viability at 20 µM was found to be 99.2%.

As to `COc1cc(/C=C/C=C/C(=O)CCc2ccc(O)cc2)ccc1O`, the IC50 in data set [1] worked out at 13.4 µM. In addition, the viability at 20 µM in data set [2] came out at 115%.

Regarding `CNC(=N)NCCC[C@H](N)C(=O)O` [TILARGININE], the viability at 20 µM in data set [2] came out at 103%.

What is called IC50 is the concentration that gives 50% inhibition.
